Legend:
[1] = mouse, in vivo
[2] = rat, in vivo
in vivo [3] = settings: mouse, po, 20 mg/kg
in vivo [4] = settings: rat, po, 20 mg/kg
[5] = system: Streptococcus pneumoniae Park I; assay: standard agar dilution-method test (MIC); type: cell-based
Excerpt: (§1) The MIC values were obtained by the standard agar dilution-method test.

[6] = system: Staphylococcus aureus V41; assay: standard agar dilution-method test (MIC); type: cell-based
Excerpt: as §1

[7] = system: Streptococcus group D 2041; assay: standard agar dilution-method test (MIC); type: cell-based
Excerpt: as §1

Hemophilus influenzae 76 = assay: standard agar dilution-method test (MIC); type: cell-based
Excerpt: as §1

[8] = system: Streptococcus pyogenes C203; assay: standard agar dilution-method test (MIC); type: cell-based
Excerpt: as §1

[9] = system: Staphylococcus aureus S13E; assay: standard agar dilution-method test (MIC); type: cell-based
Excerpt: as §1

Escherichia coli TEM = assay: standard agar dilution-method test (MIC); type: cell-based
Excerpt: as §1

[10] = system: Hemophilus influenzae C.L.; assay: standard agar dilution-method test (MIC); type: cell-based
Excerpt: as §1

Escherichia coli N10 = assay: standard agar dilution-method test (MIC); type: cell-based
Excerpt: as §1

[11] = system: Klebsiella pneumoniae X26; assay: standard agar dilution-method test (MIC); type: cell-based
Excerpt: as §1

[12] = system: Klebsiella pneumoniae X65; assay: standard agar dilution-method test (MIC); type: cell-based
Excerpt: as §1

[13] = system: Staphylococcus aureus X400; assay: standard agar dilution-method test (MIC); type: cell-based
Excerpt: as §1

[14] = system: Staphylococcus epidermidis EPI1; assay: standard agar dilution-method test (MIC); type: cell-based
Excerpt: as §1

Escherichia coli EC14 = assay: standard agar dilution-method test (MIC); type: cell-based
Excerpt: as §1

[15] = system: Staphylococcus epidermidis EPI2; assay: standard agar dilution-method test (MIC); type: cell-based
Excerpt: as §1

[16] = system: Klebsiella pneumoniae KAE; assay: standard agar dilution-method test (MIC); type: cell-based
Excerpt: (§2) Antibiotic activity of selected compounds of Formual 1 is illustrated by the following in vitro and in vivo test data in Table I, the minimum inhibitory concentration (MIC) for representative compounds against a wide range of gram-positive and gram-negative bacteria is presented. The MIC values were obtained by the standard agar dilution-method test.

[17] = system: Streptococcus group D X66; assay: standard agar dilution-method test (MIC); type: cell-based
Excerpt: as §2

[18] = system: Staphylococcus aureus X1.1; assay: standard agar dilution-method test (MIC); type: cell-based
Excerpt: as §1

Compound | Minimum Inhibitory Concentration [5] [µg/mL] | Minimum Inhibitory Concentration [6] [µg/mL] | Minimum Inhibitory Concentration [7] [µg/mL] | Minimum Inhibitory Concentration (Hemophilus influenzae 76) [µg/mL] | Minimum Inhibitory Concentration [8] [µg/mL] | Minimum Inhibitory Concentration [9] [µg/mL] | Minimum Inhibitory Concentration (Escherichia coli TEM) [µg/mL] | Minimum Inhibitory Concentration [10] [µg/mL] | Minimum Inhibitory Concentration (Escherichia coli N10) [µg/mL] | Minimum Inhibitory Concentration [11] [µg/mL] | Minimum Inhibitory Concentration [12] [µg/mL] | Minimum Inhibitory Concentration [13] [µg/mL] | Minimum Inhibitory Concentration [14] [µg/mL] | Minimum Inhibitory Concentration (Escherichia coli EC14) [µg/mL] | Minimum Inhibitory Concentration [15] [µg/mL] | Minimum Inhibitory Concentration [16] [µg/mL] | Minimum Inhibitory Concentration [17] [µg/mL] | Minimum Inhibitory Concentration [18] [µg/mL] | further results
C#CCOC1=C(C(=O)O)N2C(=O)[C@@H](NC(=O)[C@H](N)c3ccccc3)[C@H]2SC1 [Test Compound 1, 7-(R)-[2'-(R)-2'-amino-2'-phenylacetamido]-3-(prop-1'-yn-3'-yloxy)-3-cephem-4-carboxylic acid zwitterion] |  |  |  |  |  |  |  |  |  |  |  |  |  |  |  |  |  |  | oral absorption characteristics in mice [1]: excellent oral absorption characteristics; plasma levels in rats [2]: high plasma levels; concentration at 20 min (in vivo [3]): 23100 ng/mL; concentration at 40 min (in vivo [3]): 12400 ng/mL; concentration at 1 h (in vivo [3]): 4000 ng/mL; concentration at 2 h (in vivo [3]): 850 ng/mL; concentration at 20 min (in vivo [4]): 3900 ng/mL; concentration at 1 h (in vivo [4]): 15900 ng/mL; concentration at 2 h (in vivo [4]): 19300 ng/mL; concentration at 4 h (in vivo [4]): 14700 ng/mL; concentration at 6 h (in vivo [4]): 12300 ng/mL; concentration at 9 h (in vivo [4]): 8500 ng/mL
Benzhydryl 7-(R)-[(2'R)-2'-(N-(t-butylcarbamato))-2'-(para-hydroxyphenyl)acetamido]-3-(prop-1'-yn-3'-yloxy)-3-cephem-4-carboxylate [Example 4] | 0.5 | 8 | 32 | 8 | 0.06 | 16 | 8 | 8 | 4 | 2 | 2 | 64 | 8 | 2 | 1 | 64 | 64 |  | 
Para-nitrobenzyl 7-(R)-[(2'R)-2'-(N-(t-butylcarbamato))-2' -phenylacetamido]-3-(prop-1'-yn-3'-yloxy)-3-cephem-4-carboxylate [Example 3] | 1 | 128 | 128 | 128 | 0.5 | 128 | 128 | 128 | 128 | 64 | 128 | 128 | 128 | 64 | 8 | 128 | 128 | 8 | 
Para-nitrobenzyl 7-(R)-phenoxyacetamido-3-(but-2'-yn-4'-yloxy)-3-cephem-4-carboxylate [Example 6] | 0.25 | 64 | 32 | 4 | 0.06 | 64 | 16 | 8 | 8 | 4 | 4 | 64 | 16 | 4 | 1 | 128 | 128 | 0.5 | 
Para-nitrobenzyl 7-(R)-phenoxyacetamido-3-(prop-1'-yn-3'-yloxy)-3-cephem-4-carboxylate [Example 1] | 1 | 32 | 128 | 4 | 0.25 | 32 | 8 | 4 | 4 | 2 | 4 | 64 | 8 | 2 | 2 | 128 | 128 | 2 | 
benzhydryl 7-(R)-[(2'R)-2'-(N-(t-butylcarbamato))-2'-phenylacetamido]-3-(prop-1'-yn-3'-yloxy)-3-cephem-4-carboxylate [Example 2] | 0.25 | 128 | 64 | 8 | 0.06 | 128 | 16 | 4 | 16 | 2 | 4 | 128 | 32 | 4 | 2 | 128 | 128 | 2 | 

From patent US4604386A, “3-(alkynylalkyloxy) cephalosporins” (Eli Lilly and Company, priority 1984, dated 1986)
